Assay results published in ChEMBL document CHEMBL2380242, “Discovery of novel orally bioavailable GPR40 agonists” (Bioorg Med Chem Lett, 2013).
Activity calls are given as the source filed them. The rule behind the calls is not given here.

Experiments:
[1] = Cmax in rat at 5 mg/kg, po; type: ADME, organism-based; parameters: dose 5 mg/kg, route oral; details: in vivo
[2] = Half life in cynomolgus monkey at 6 mg/kg, po; type: ADME, organism-based, Macaca fascicularis; parameters: dose 6 mg/kg, route oral; details: in vivo
[3] = AUC in cynomolgus monkey at 6 mg/kg, po; type: ADME, organism-based, Macaca fascicularis; parameters: dose 6 mg/kg, route oral; details: plasma
[4] = Half life in beagle dog at 1 mg/kg, po; type: ADME, organism-based, Canis lupus familiaris; parameters: dose 1 mg/kg, route oral; details: in vivo
[5] = biological target: Free fatty acid receptor 1 (Rattus norvegicus) (UniProt Q8K3T4); test: Agonist activity at GPR40 in rat INS-1 cells assessed as glucose-stimulated insulin secretion relative to TAK-875; type: cell-based; details: INS1
[6] = Plasma clearance in rat at 5 mg/kg, po; type: ADME, organism-based; parameters: dose 5 mg/kg, route oral
Rattus norvegicus = test: Volume of distribution in rat at 5 mg/kg, po; type: ADME, organism-based; parameters: dose 5 mg/kg, route oral; details: in vivo
[7] = Oral bioavailability in rat at 5 mg/kg; type: ADME, organism-based; details: in vivo
[8] = Plasma clearance in cynomolgus monkey at 6 mg/kg, po; type: ADME, organism-based, Macaca fascicularis; parameters: dose 6 mg/kg, route oral
Mus musculus [9] = test: Antidiabetic activity in high fat feasted ICR mouse assessed as inhibition of blood glucose excursion at 50 mg/kg, po administered 15 mins prior to dextrose challenge measured for 120 mins by OGTT relative to control; type: functional
[10] = Cmax in beagle dog at 1 mg/kg, po; type: ADME, organism-based, Canis lupus familiaris; parameters: dose 1 mg/kg, route oral; details: in vivo
[11] = Half life in rat at 5 mg/kg, po; type: ADME, organism-based; parameters: dose 5 mg/kg, route oral; details: in vivo
[12] = Cmax in cynomolgus monkey at 6 mg/kg, po; type: ADME, organism-based, Macaca fascicularis; parameters: dose 6 mg/kg, route oral; details: in vivo
[13] = biological target: T1, Free fatty acid receptor 1 (Homo sapiens, UniProt O14842); test: Agonist activity at human GPR40 transfected in CHO cells by calcium flux assay relative to TAK-875; type: functional, cell-based
Cynomolgus monkey = test: Volume of distribution in cynomolgus monkey at 6 mg/kg, po; type: ADME, organism-based, Macaca fascicularis; parameters: dose 6 mg/kg, route oral; details: in vivo
[14] = AUC in rat at 5 mg/kg, po; type: ADME, organism-based; parameters: dose 5 mg/kg, route oral; details: plasma
[15] = biological target: T1, Free fatty acid receptor 1; test: Agonist activity at human GPR40 transfected in CHO cells by calcium flux assay; type: functional, cell-based
[16] = AUC in beagle dog at 1 mg/kg, po; type: ADME, organism-based, Canis lupus familiaris; parameters: dose 1 mg/kg, route oral; details: plasma
Mus musculus [17] = test: Antidiabetic activity in high fat feasted ICR mouse assessed as inhibition of blood glucose excursion administered 15 mins prior to dextrose challenge measured for 120 mins by OGTT relative to control; type: functional
[18] = Lipophilicity, log D of the compound; type: physicochemical; details: octanol/water
[19] = Inhibition of CYP450 (unknown origin); type: ADME, Homo sapiens
Canis familiaris = test: Volume of distribution in beagle dog at 1 mg/kg, po; type: ADME, organism-based, Canis lupus familiaris; parameters: dose 1 mg/kg, route oral; details: in vivo
[20] = biological target: T2, Free fatty acid receptor 4 (Homo sapiens) (UniProt Q5NUL3); test: Agonist activity at GPR120 (unknown origin) up to 10 uM
T2 sequence (whole entry): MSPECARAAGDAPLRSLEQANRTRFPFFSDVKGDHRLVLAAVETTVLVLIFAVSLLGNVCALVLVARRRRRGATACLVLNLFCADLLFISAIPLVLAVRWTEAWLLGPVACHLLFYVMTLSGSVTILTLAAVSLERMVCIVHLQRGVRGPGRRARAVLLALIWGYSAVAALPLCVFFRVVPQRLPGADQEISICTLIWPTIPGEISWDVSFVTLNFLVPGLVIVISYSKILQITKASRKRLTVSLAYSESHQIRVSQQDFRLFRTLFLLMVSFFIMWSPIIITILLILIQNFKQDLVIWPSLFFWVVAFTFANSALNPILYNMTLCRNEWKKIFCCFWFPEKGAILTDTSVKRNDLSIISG

[21] = biological target: T3, Free fatty acid receptor 2 (Homo sapiens) (UniProt O15552); test: Agonist activity at GPR43 (unknown origin) up to 10 uM
T3 sequence (whole entry): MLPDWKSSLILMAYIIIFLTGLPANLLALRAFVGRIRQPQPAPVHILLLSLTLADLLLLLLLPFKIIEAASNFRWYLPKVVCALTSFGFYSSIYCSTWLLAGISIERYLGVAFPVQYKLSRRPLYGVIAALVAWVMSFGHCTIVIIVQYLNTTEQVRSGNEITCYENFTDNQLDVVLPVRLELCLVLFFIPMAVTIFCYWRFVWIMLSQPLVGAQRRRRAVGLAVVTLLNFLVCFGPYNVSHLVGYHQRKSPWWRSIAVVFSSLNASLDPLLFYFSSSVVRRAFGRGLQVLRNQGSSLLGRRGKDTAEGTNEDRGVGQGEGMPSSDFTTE

[22] = biological target: T4, Free fatty acid receptor 3 (Homo sapiens) (UniProt O14843); test: Agonist activity at GPR41 (unknown origin) up to 10 uM
T4 sequence (whole entry): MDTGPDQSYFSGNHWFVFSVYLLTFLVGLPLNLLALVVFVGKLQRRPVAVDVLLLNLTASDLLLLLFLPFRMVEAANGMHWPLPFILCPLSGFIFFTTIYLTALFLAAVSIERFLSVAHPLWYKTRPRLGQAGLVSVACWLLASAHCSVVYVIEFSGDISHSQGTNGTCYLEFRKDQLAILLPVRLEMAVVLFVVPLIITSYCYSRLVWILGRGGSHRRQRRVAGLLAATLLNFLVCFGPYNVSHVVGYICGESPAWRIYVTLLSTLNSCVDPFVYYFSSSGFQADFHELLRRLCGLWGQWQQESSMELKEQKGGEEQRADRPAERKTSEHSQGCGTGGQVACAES

Rhesus monkey [23] = test: Antidiabetic activity in obese type 2 diabetic rhesus monkey model assessed as inhibition of blood glucose excursion at 6 mg/kg, po administered 1 to 2 hrs prior to dextrose challenge measured for 60 mins by IVGTT relative to control; type: functional; details: Macaca mulatta
[24] = biological target: Free fatty acid receptor 1 (Rattus norvegicus, UniProt Q8K3T4); test: Agonist activity at GPR40 in rat INS-1 cells assessed as glucose-stimulated insulin secretion; type: cell-based, INS1
Rhesus monkey [25] = test: Antidiabetic activity in obese type 2 diabetic rhesus monkey model assessed as inhibition of blood glucose excursion at 6 mg/kg, po administered 1 to 2 hrs prior to dextrose challenge measured for 120 mins by IVGTT relative to control; type: functional; details: Macaca mulatta
[26] = Plasma clearance in beagle dog at 1 mg/kg, po; type: ADME, organism-based, Canis lupus familiaris; parameters: dose 1 mg/kg, route oral
Rhesus monkey [27] = test: Antidiabetic activity in obese type 2 diabetic rhesus monkey model assessed as inhibition of blood glucose excursion at 20 mg/kg, po administered 1 to 2 hrs prior to dextrose challenge measured for 60 mins by IVGTT relative to control; type: functional; details: Macaca mulatta
Rhesus monkey [28] = test: Antidiabetic activity in obese type 2 diabetic rhesus monkey model assessed as inhibition of blood glucose excursion at 20 mg/kg, po administered 1 to 2 hrs prior to dextrose challenge measured for 120 mins by IVGTT relative to control; type: functional; details: Macaca mulatta
Mus musculus [29] = test: Antidiabetic activity in high fat feasted ICR mouse assessed as reduction of blood glucose excursion at 20 mg/kg, po administered 15 mins prior to dextrose challenge measured for 120 mins by OGTT; type: functional, organism-based; parameters: dose 20 mg/kg

T1 sequence (O14842 whole entry): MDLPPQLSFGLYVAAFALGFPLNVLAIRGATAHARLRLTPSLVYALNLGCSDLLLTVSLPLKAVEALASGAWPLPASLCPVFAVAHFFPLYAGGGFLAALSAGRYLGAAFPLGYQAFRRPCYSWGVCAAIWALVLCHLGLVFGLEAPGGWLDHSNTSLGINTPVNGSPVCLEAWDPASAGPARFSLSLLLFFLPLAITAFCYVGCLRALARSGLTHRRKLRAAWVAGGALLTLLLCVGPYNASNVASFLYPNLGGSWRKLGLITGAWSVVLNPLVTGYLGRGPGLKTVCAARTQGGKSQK
Sequence of Free fatty acid receptor 1 (Rattus norvegicus) (Q8K3T4 whole entry): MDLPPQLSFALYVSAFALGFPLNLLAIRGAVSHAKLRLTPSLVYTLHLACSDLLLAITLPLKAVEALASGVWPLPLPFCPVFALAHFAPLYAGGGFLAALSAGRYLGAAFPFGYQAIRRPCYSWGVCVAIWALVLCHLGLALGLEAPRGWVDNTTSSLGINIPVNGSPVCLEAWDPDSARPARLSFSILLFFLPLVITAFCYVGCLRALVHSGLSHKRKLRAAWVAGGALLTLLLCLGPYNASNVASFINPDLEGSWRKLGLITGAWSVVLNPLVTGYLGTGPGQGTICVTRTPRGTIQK
Sequence of Free fatty acid receptor 1 (Rattus norvegicus, UniProt Q8K3T4) (Q8K3T4 whole entry): as above

Cmax [1] | half-life [2] | AUC [3] | half-life [4] | Emax [5] | CL/F [6] | Vd (Rattus norvegicus) | CL/F [8] | Cmax [10] | half-life [11] | Cmax [12] | Emax [13] | Vd (Cynomolgus monkey) | AUC [14] | EC50 [15] | AUC [16] | EC50 [24] | SMILES | inhibition in vivo at 50 mg/kg (Mus musculus [9]) | other results
19400 ng/mL | 16.4 h | 54700 ng·h/mL | 19.1 h | 43.6% | 0.167 mL/min/kg | 0.23 L/kg | 1.67 mL/min/kg | 2580 ng/mL | 16.1 h | 7700 ng/mL | 99.5% | 2.38 L/kg | 427000 ng·h/mL | 11.3 nM | 47400 ng·h/mL | – | O=C(O)C[C@@H]1COc2cc3c(cc21)OC[C@@H](c1cccc(C(F)(F)F)c1)O3 | 13.3% | bioavailability [7]: 100%
– | – | – | – | – | – | – | – | – | – | – | 91% | – | – | 19.1 nM | – | – | Cc1ccccc1-c1cccc([C@H]2COc3cc4c(cc3O2)OC[C@H]4CC(=O)O)c1 | – | inhibition (INH) (Mus musculus [17]): 9.7%
17800 ng/mL | 18 h | 136000 ng·h/mL | 26.4 h | 40% | 0.117 mL/min/kg | 0.25 L/kg | 0.667 mL/min/kg | 2270 ng/mL | 26.8 h | 5360 ng/mL | 120% | 1.02 L/kg | 530000 ng·h/mL | 13.5 nM | 30600 ng·h/mL | 77 nM | O=C(O)C[C@@H]1COc2cc3c(cc21)OC[C@@H](c1cccc(Br)c1)O3 | 4.9% | logD [18]: < 3; IC50 [19]: > 50000 nM; Vd (Canis familiaris): 0.93 L/kg; Activity [20]: inactive; Activity [21]: inactive; Activity [22]: inactive; inhibition in vivo at 6 mg/kg (Rhesus monkey [23]): 32.1%; inhibition in vivo at 6 mg/kg (Rhesus monkey [25]): 24.4%; CL/F [26]: 0.5 mL/min/kg
– | – | – | – | – | – | – | – | – | – | – | – | – | – | – | – | 93 nM | Cc1cc(OCCCS(C)(=O)=O)cc(C)c1-c1cccc(COc2ccc3c(c2)OC[C@H]3CC(=O)O)c1 | – | inhibition in vivo at 20 mg/kg (Rhesus monkey [27]): 14.7%; inhibition in vivo at 20 mg/kg (Rhesus monkey [28]): 15%; Activity (Mus musculus [29]): Active
